In patent US11059778B2, “Cannabinoid receptor CB2 ligand 4-(aminomethyl)-N, N-dialkylanilines” (UNIVERSITY OF PITTSBURGH—OF THE COMMONWEALTH SYSTEM OF …, priority 2015, dated 2021):

How the values were obtained:
human CB2 receptors = target: T1, human CB2 receptors (Homo sapiens, UniProt P34972); experiment: [3H]CP-55,940 radioligand competition binding assay, CB2; details: for Ki: CHO cell membranes, [3H]CP-55,940 displacement
T1 construct: expressed in transfected cells
Experimental: (§1) Binding assay. The bioassay is carried out using the Perkin Elmer 96-well Top Counter. This bioassay is also known as a competition binding assay and the biological evaluation is to determine the CB receptor binding affinity (Ki) of the screened ligands by displacing [^3H]-CP-55940 (or other radioligands). The brief procedure is given below.
(§2) Perkin Elmer 96-well TopCounter is used at PMLSC and in our laboratory to determine the CB receptor binding affinity (Ki) of the in-silico screened ligands by displacing [^3H]-CP-55,940 (or other radioligands). In competition binding experiments, the tested compound dilutions are carried out in triplicate in TME buffer (25 mM Tris, 5 mM MgCl2, 1 mM EDTA) containing 0.1% (w/v) fatty acid free bovine serum albumin (BSA), pH 7.4. Various concentrations of the tested compound are added in the same volume to 0.5 nM [^3H]CP-55,940. TME buffer and cell membrane preparations expressing CB receptors (2.5 μg per well) are added to a final volume of 200 μL. For the saturation binding experiments, varying concentrations of [^3H]CP-55,940 (0.05-1.5 nM) with or without 2 μM of unlabeled ligands (CP-55,940 or WIN-55,212-2) are incubated with the receptor membrane preparations to determine Kd and nonspecific binding. After the binding suspensions are incubated at 30° C. for 1 hr, the reaction is terminated by rapid filtration through microfiltration plates coated with 0.5% polyethylenimine (Unifilter GF/B filterplate, PerkinElmer) followed by 5 washes with ice cold TME buffer containing 0.5% BSA on a Packard Filtermate Harvester (PerkinElmer). The plates are then dried overnight and 30 μl MicroScint 0 scintillation cocktail are added to each well of the dried filter plates. Then the bound radioactivity is counted using a Perkin Elmer 96-well TopCounter. The Ki is calculated by using nonlinear regression analysis (Prism 5; GraphPad Software Inc., San Diego, Calif.), with the Kd values for [^3H]CP-55,940 determined from saturation binding experiments. This assay is used for determining binding affinity parameters (Ki) of ligand-receptor interactions for the CB receptor.
(§3) The affinities of the synthesized ligands were determined in radioligand binding studies at human CB1 and CB2 receptors using [3H](—)-cis-3-[2-hydroxy-4-(1,1 dimethylheptyl)phenyl]-trans-4-(3-hydroxypropyl) cyclohexanol (CP55,940) as a CB receptor radioligand. As a source for human CB1 and CB2 receptors, membrane preparations of Chinese hamster ovary (CHO) cells stably expressing the respective receptor subtype were utilized (50 μg of protein/vial). CB2 selective ligand SR144528 (CB2 inverse agonist) and CB1 ligand SR141716 (CB1 inverse agonist) were used as positive controls, respectively, along with the tested compounds in bioassays experiments. Only compounds with high CB2 receptor binding potency was chosen to carry out the CB1 binding assay. CB ligand competition binding assay was carried out as described previously in Gertsch, J., et al., Beta-caryophyllene is a dietary cannabinoid. Proc Natl Acad Sci USA 2008, 105 (26), 9099-104. Briefly, non-radioactive (or cold) ligands (synthesized derivatives and reference ligands) were diluted in a binding buffer (50 mM Tris-HCl (pH 7.4), 5 mM MgC12, 2.5 mM EGTA, and 0.1% (w/v) fatty acid free BSA), supplemented with 10% dimethyl sulfoxide and 0.4% methyl cellulose. Each assay plate well contained a total of 200 μL of reaction mixture composed of 5 μg of CB1 (or 2.5 μg CB2) membrane protein, labeled [3H]-CP-55,940 ligand at a final concentration of 2.5 nM, and the unlabeled ligand at its varying dilutions as stated above. Plates were incubated at 30° C. for 1 hour with gentle shaking.
(§4) The reaction was terminated by rapid filtration through Unifilter GF/B filter plates using a Unifilter Cell Harvester (PerkinElmer). After the plate was allowed to dry overnight, 30 μL MicroScint-0 cocktail (PerkinElmer) was added to each well, and the radioactivity was counted using a PerkinElmer TopCounter. […]

human CB1 receptors = target: T2, human CB1 receptors (Homo sapiens, UniProt P21554); experiment: [3H]CP-55,940 radioligand competition binding assay, CB1; details: CHO cell membranes, [3H]CP-55,940 displacement
T2 construct: expressed in transfected cells
Experimental: as §1, §2, §3, §4

T2 sequence (P21554 whole entry): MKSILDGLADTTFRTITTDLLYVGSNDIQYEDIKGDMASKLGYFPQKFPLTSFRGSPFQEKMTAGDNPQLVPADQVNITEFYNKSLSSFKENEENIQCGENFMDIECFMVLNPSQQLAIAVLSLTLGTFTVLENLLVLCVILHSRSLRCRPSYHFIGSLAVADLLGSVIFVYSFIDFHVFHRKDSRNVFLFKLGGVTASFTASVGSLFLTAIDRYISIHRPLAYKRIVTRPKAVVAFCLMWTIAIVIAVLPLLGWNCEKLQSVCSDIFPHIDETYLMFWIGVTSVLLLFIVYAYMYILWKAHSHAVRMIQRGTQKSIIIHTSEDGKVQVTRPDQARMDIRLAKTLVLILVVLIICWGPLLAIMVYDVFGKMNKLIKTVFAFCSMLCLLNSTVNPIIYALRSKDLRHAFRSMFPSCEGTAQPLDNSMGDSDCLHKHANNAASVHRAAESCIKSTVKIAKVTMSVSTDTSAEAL
T1 sequence (P34972 whole entry): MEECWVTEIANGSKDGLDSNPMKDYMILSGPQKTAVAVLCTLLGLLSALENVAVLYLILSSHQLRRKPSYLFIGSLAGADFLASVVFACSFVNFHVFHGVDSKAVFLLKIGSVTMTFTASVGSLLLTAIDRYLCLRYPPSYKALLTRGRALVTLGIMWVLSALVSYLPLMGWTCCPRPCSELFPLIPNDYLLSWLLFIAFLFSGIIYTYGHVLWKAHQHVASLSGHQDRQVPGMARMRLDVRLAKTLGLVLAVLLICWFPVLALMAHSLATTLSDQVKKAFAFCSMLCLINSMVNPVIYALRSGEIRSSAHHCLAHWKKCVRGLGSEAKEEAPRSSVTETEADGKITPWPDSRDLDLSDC

| SI: selectivity index for CB2, calculated as Ki(CB1)/Ki(CB2) ratio (human CB2 receptors) | Ki (human CB2 receptors) | Ki (human CB1 receptors) | SMILES |
| --- | --- | --- | --- |
| 31 | 107 nM | 3280 nM | CCN(CC)c1ccc(CN(Cc2cc(OC)c(OC)c(OC)c2)C(=O)c2cccs2)cc1 [Compound 11, N-(4-(diethylamino)benzyl)-N-(3,4,5-trimethoxybenzyl)thiophene-2-carboxamide] |
| 9 | 242 nM | 2290 nM | CCN(CC)c1ccc(CN(Cc2cc(OC)c(OC)c(OC)c2)S(=O)(=O)c2ccc(C=O)cc2)cc1 [Compound 18, N-(4-(diethylamino)benzyl)-4-formyl-N-(3,4,5-trimethoxybenzyl)benzenesulfonamide] |

| SMILES | SI: selectivity index for CB2, calculated as Ki(CB1)/Ki(CB2) ratio (human CB2 receptors) | Ki (human CB2 receptors) | Ki (human CB1 receptors) |
| --- | --- | --- | --- |
| CCN(CC)c1ccc(CN(Cc2cc(OC)c(OC)c(OC)c2)S(=O)(=O)/C=C/c2ccccc2)cc1 [Compound 15, (E)-N-(4-(diethylamino)benzyl)-2-phenyl-N-(3,4,5-trimethoxybenzyl)ethene-1-sulfonamidebenzenesulfonamide] | 145 | 138 nM | > 20000 nM |
